Consider three molecules from US20180133337A1, “CALICHEAMICIN CONSTRUCTS AND METHODS OF USE” (priority 2015, published 2018).

One may read the IC50 as the concentration at which inhibition is half-maximal.

In one series the target is Cathepsin B (Homo sapiens, UniProt P07858). The series can be described thus: Cathepsin B cleavage assay of dipeptide linker-drug constructs. It counts as biochemical. The conditions noted are these: NAC-quenched linker-drug, 2.5, 5 or 10 mol % enzyme, pH 6.0, room temperature, 15-90 min. The protocol:
Initially linker drug constructs from Examples 3 and 4 were treated with IM N-acetyl cysteine solution to quench maleimide functionality prior to the cathepsin B treatment. Excess of N-acetyl cysteine is used to activate the Cathepsin B.
More specifically quenched linker-drugs in 1:1 acetonitrile:water solution (20 ul) were diluted with 20 mM HisC1 pH 6.0 to a final acetonitrile content of 10% v/v ([…]). Cathepsin B enzyme was added to result in 2.5 mol %, 5 mol % or 10 mol % enzyme relative to the linker-drug. Reactions were vortexed gently and kept at room temperature. At the time points of 15, 30, 60 and 90 min 3 ul of the reaction mixture were placed into the total recovery vial containing 5 uL Tris pH 9, 2 uL 100 mM […] (DHAA), 15 ul water. The samples were analyzed using Analytical Method B set forth above. Conversion was calculated based on the decrease of the starting material peak area.

In a further series the test system is 293 T cells. The series can be described thus: In vitro cell killing by calicheamicin and linker-drug constructs (CellTiter-Glo, 72 hours). It is filed as cell-based. The method, then:
(§1) 293 T cells were used along with MES SA and MES SA/Dx cells which comprise uterine sarcoma lines purchased from ATCC. The MES SA/Dx cell line was generated from MES SA cells cultured with increasing amounts of doxorubicin resulting in 100-fold resistance to doxorubicin and upregulation of MDR1.
(§2) The cells were cultured in a T75 flask to ˜50-80% confluency and harvested with trypsin into a single cell suspension. Five hundred (500) cells per well were seeded in tissue culture plates in 50 μL/well culture media and incubated at 37° C. for 18-24 hours. Compounds were diluted as 400× final desired concentrations in DMSO. Serial dilutions in DMSO were then diluted in culture media for a final DMSO concentration of 0.25% and 50 μL/well of the final dilution was added to the cells (Vf=100 μL). Upon plating and treatment, cells were returned to the incubator for an additional 72 hours. CellTiter-Glo reagent was prepared per manufacturer's instructions and added at 100 μL/well to the cultures. CellTiter-Glo allows for relative enumeration of metabolically active cells by quantifying intracellular ATP concentrations. After 5 minutes of incubation with CellTiter-Glo at ambient room temperature, 125 μL/well of the Cell Titer Glo/cell lysate solution was transferred into black assay plates, which were then read in a luminometer within 30 minutes.
For orientation: In ATP-based viability assays light output follows the ATP content of the culture.

The subject of series [1] is MES SA cells (uterine sarcoma line). The description is as above. It counts as cell-based. The conditions noted are these: for IC50: MES SA. The method, then: as §1, §2
For series [2], the system named is MES SA/Dx cells (doxorubicin-resistant uterine sarcoma line, MDR1 upregulated). The series is described as above. It is filed as cell-based. The method, then:
as §1, §2

Where [3] appears, read: LINKER DRUG IVK (1000 nM start, 10X dilutions).
The mark [4] stands for this setting: SMALL MOLECULE IVK (10 nM start, 5X dilutions).
[5] abbreviates: SMALL MOLECULE IVK (10 nM start, 5X dilutions), listed as N acetyl calicheamicin (lot B).

On to `CCN(C(C)=O)[C@H]1CO[C@@H](O[C@H]2[C@H](O[C@H]3C#C/C=C\C#C[C@]4(O)CC(=O)C(NC(=O)OC)=C3/C4=C\CSSC(C)(C)CCC(=O)NCCNC(=O)OCc3ccc(NC(=O)[C@H](C)NC(=O)[C@@H](NC(=O)CCCCCN4C(=O)C=CC4=O)C(C)C)cc3)O[C@H](C)[C@@H](NO[C@H]3C[C@H](O)[C@H](SC(=O)c4c(C)c(I)c(O[C@@H]5O[C@@H](C)[C@H](O)[C@@H](OC)[C@H]5O)c(OC)c4OC)[C@@H](C)O3)[C@H]2O)C[C@@H]1OC` [Val-Ala calicheamicin], for which, on Cathepsin B, the “cleavage by Cathepsin B” value was “effectively cleaved”.
As to `CCN(C(C)=O)[C@H]1CO[C@@H](O[C@H]2[C@H](O[C@H]3C#C/C=C\C#C[C@]4(O)CC(=O)C(NC(=O)OC)=C3/C4=C\CSSC(C)(C)CCC(=O)NCCNC(=O)OCc3ccc(NC(=O)[C@H](CCCNC(N)=O)NC(=O)[C@@H](NC(=O)CCCCCN4C(=O)C=CC4=O)C(C)C)cc3)O[C@H](C)[C@@H](NO[C@H]3C[C@H](O)[C@H](SC(=O)c4c(C)c(I)c(O[C@@H]5O[C@@H](C)[C@H](O)[C@@H](OC)[C@H]5O)c(OC)c4OC)[C@@H](C)O3)[C@H]2O)C[C@@H]1OC` [Val-Cit calicheamicin], the “cleavage by Cathepsin B” value at Cathepsin B is recorded as “effectively cleaved”. Moreover, the “rate of cleavage by Cathepsin B, compared between constructs” value on Cathepsin B was “cleaved more rapidly than the Val-Ala dipeptidyl construct”. Also, the results for the IC50 (in the series with 293 T cells (setting [3]); in series [1] (setting [3]); in series [2] (setting [3])) were 46 nM, 6.3 nM and more than 1000 nM, respectively.
For the molecule `CCN(C(C)=O)[C@H]1CO[C@@H](O[C@H]2[C@H](O[C@H]3C#C/C=C\C#C[C@]4(O)CC(=O)C(NC(=O)OC)=C3/C4=C\CSSSC)O[C@H](C)[C@@H](NO[C@H]3C[C@H](O)[C@H](SC(=O)c4c(C)c(I)c(O[C@@H]5O[C@@H](C)[C@H](O)[C@@H](OC)[C@H]5O)c(OC)c4OC)[C@@H](C)O3)[C@@H]2O)C[C@@H]1OC` [N acetyl calicheamicin (lot A), N-acetyl calicheamicin γ 1], the IC50 amounted to 0.0409 nM with 293 T cells (setting [4]); 0.052 nM in the series with 293 T cells (setting [5]); 0.0308 nM in series [1] (setting [4]); 0.0693 nM in series [1] (setting [5]); 30.6 nM in series [2] (setting [4]); 17.1 nM in series [2] (setting [5]). Further, the “derived IC50 values, range of activity” value in series [1] (summary of Table 5) is “picomolar range”.
